Results published in patent US20160303184A1, “VANCOMYCIN-SUGAR CONJUGATES AND USES THEREOF” (JAWAHARLAL NEHRU CENTRE FOR ADVANCED SCIENTIFIC RESEARCH …, priority 2013, published 2016).
In brackets after ≈: the same amount, converted by molar mass.

Columns and labels:
Assay type in all cases: cell-based
[1] = system: Vancomycin intermediate resistant S. aureus; test: MIC, micro-dilution broth, VISA; details: Staphylococcus aureus, VISA; read-out: MIC VISA
Description: (§1) All test compounds were assayed in a micro-dilution broth format. Stock solutions were made by serially diluting the compounds using autoclaved millipore water or broth media. The antibacterial activity of the compounds was determined against methicillin-sensitive S. aureus (MSSA), methicillin-resistant S. aureus (MRSA), vancomycin-intermediate-resistant S. aureus (VISA), vancomycin-sensitive E. faecium (VSE) and vancomycin-resistant E. faecium (VRE). Bacteria, to be tested, were grown for about 10 h in the suitable media, MSSA, MRSA and VISA were grown in yeast-dextrose broth (about 1 g of beef extract, about 2 g of yeast extract, about 5 g of peptone and about 5 g of NaCl in about 1000 mL of sterile distilled water (pH-7)). For solid media, about 5% agar was used along with above mentioned composition. VSE and VRE were cultured in brain heart infusion broth (Himedia). The bacterial samples were freeze dried and stored at −80° C. About 5 μL of these stocks were added to about 3 mL of the nutrient broth and the culture was grown for about 6 h at about 37° C. prior to the experiments. This 6 h grown culture gives about 10^9 cfu/mL and this was determined by spread plating method. The 6 h grown culture was diluted to give effective cell concentration of about 10^5 cfu/mL which was then used for determining MIC. Compounds were serially diluted, in sterile water (2 fold dilution is employed) in a way that the working concentration was about 10 μM for MSSA, MRSA, and VSE while for VRE and VISA it was about 100 μM. About 50 μL of these serial dilutions were added to the wells of 96 well plate followed by the addition of about 150 μL of bacterial solution. The plates were then incubated at about 37° C., 150 rpm in the incubator and O.D at 600 nm was recorded at an interval of about 10 h and 24 h using TECAN (Infinite series, M200 pro) Plate Reader. Each concentration had triplicate values and the whole experiment was done at least twice and the MIC value was determined by taking the average of triplicate. O. D. values for each concentration and plotting it against concentration. The data was then subjected to sigmoidal fitting. From the curve the MIC value was determined, as the point in the curve where the O. D. was similar to that of control having no bacteria.

[2] = system: Methicillin-sensitive S. aureus (MTCC 737); test: MIC, micro-dilution broth, MSSA; details: Staphylococcus aureus, MTCC 737; read-out: MIC MSSA
Description: as §1

[3] = system: Methicillin-resistant S. aureus (ATCC 33591); test: MIC, micro-dilution broth, MRSA; details: Staphylococcus aureus, ATCC 33591; read-out: MIC MRSA
Description: as §1

[4] = system: Vancomycin-resistant E. faecium (VanA, ATCC 51559); test: MIC, micro-dilution broth, VRE (VanA); details: Enterococcus faecium; E. faecium ATCC 51559; read-out: MIC VRE (VanA)
Description: as §1

[5] = system: Vancomycin-sensitive E. faecium (ATCC 19634); test: MIC, micro-dilution broth, VSE; details: Enterococcus faecium, ATCC19634, ATCC 19634; read-out: MIC VSE
Description: as §1

[6] = system: Vancomycin-resistant E. faecalis (VanA, ATCC 51575); test: MIC, micro-dilution broth, VRE (VanB); details: Enterococcus faecalis; E. faecalis ATCC 51575; read-out: MIC VRE (VanB)
[7] = system: methicillin-resistant S. epidermidis clinical isolate; test: MIC, clinical isolate of methicillin-resistant S. epidermidis; details: Staphylococcus epidermidis, read-out: MIC S. epidermidis
[8] = system: methicillin-resistant S. aureus clinical isolate; test: MIC, clinical isolate of methicillin-resistant S. aureus; details: Staphylococcus aureus, read-out: MIC S. aureus
Description: as §1

[9] = system: methicillin-resistant S. haemolyticus clinical isolate; test: MIC, clinical isolate of methicillin-resistant S. haemolyticus; details: Staphylococcus haemolyticus; clinical isolate, methicillin-resistant; read-out: MIC S. haemolyticus

Compound	MIC [1]	MIC [2]	MIC [3]	MIC [4]	MIC [5]	MIC [6]	MIC [7]	MIC [8]	MIC [9]
CN[C@H](CC(C)C)C(=O)N[C@H]1C(=O)N[C@@H](CC(N)=O)C(=O)N[C@H]2C(=O)N[C@H]3C(=O)N[C@H](C(=O)N[C@H](C(=O)NCCCNCC(O)C(O)C(OC4OC(CO)C(O)C(O)C4O)C(O)CO)c4cc(O)cc(O)c4-c4cc3ccc4O)[C@H](O)c3ccc(c(Cl)c3)Oc3cc2cc(c3O[C@H]2OC(CO)[C@H](O)C(O)C2O[C@H]2C[C@@](C)(N)[C@H](O)C(C)O2)Oc2ccc(cc2Cl)[C@H]1O (stereo partly shown) [Compound 5]	1.08 µM (≈ 1.98 µg/mL)	1 µM (≈ 1.83 µg/mL)	1 µM (≈ 1.83 µg/mL)	> 100 µM	0.66 µM (≈ 1.21 µg/mL)				
CCCCCCCCN[C@]1(C)C[C@H](OC2C(O)[C@@H](O)C(CO)O[C@@H]2Oc2c3cc4cc2Oc2ccc(cc2Cl)[C@@H](O)[C@@H](NC(=O)[C@@H](CC(C)C)NC)C(=O)N[C@@H](CC(N)=O)C(=O)N[C@H]4C(=O)N[C@H]2C(=O)N[C@H](C(=O)N[C@H](C(=O)NCCCNC(=O)[C@H](O)[C@@H](O)[C@H](OC4OC(CO)C(O)C(O)C4O)[C@H](O)CO)c4cc(O)cc(O)c4-c4cc2ccc4O)[C@H](O)c2ccc(c(Cl)c2)O3)OC(C)[C@@H]1O (stereo partly shown) [Compound 17]	0.31 µM (≈ 0.607 µg/mL)	0.2 µM (≈ 0.392 µg/mL)	0.3 µM (≈ 0.587 µg/mL)	2 µM (≈ 3.92 µg/mL)	0.2 µM (≈ 0.392 µg/mL)	6.2 µM (≈ 12.1 µg/mL)	0.3 µM (≈ 0.587 µg/mL)	0.2 µM (≈ 0.392 µg/mL)	0.4 µM (≈ 0.783 µg/mL)
CCCCCCCCN[C@]1(C)C[C@H](OC2C(O)[C@@H](O)C(CO)O[C@@H]2Oc2c3cc4cc2Oc2ccc(cc2Cl)[C@@H](O)[C@@H](NC(=O)[C@@H](CC(C)C)NC)C(=O)N[C@@H](CC(N)=O)C(=O)N[C@H]4C(=O)N[C@H]2C(=O)N[C@H](C(=O)N[C@H](C(=O)O)c4cc(O)cc(O)c4-c4cc2ccc4O)[C@H](O)c2ccc(c(Cl)c2)O3)OC(C)[C@@H]1O (stereo partly shown) [Compound 15]	0.4 µM (≈ 0.625 µg/mL)	0.3 µM (≈ 0.468 µg/mL)	0.3 µM (≈ 0.468 µg/mL)	25 µM (≈ 39 µg/mL)	0.4 µM (≈ 0.625 µg/mL)	12.5 µM (≈ 19.5 µg/mL)			
CCCCCCCCCCN[C@]1(C)C[C@H](OC2C(O)[C@@H](O)C(CO)O[C@@H]2Oc2c3cc4cc2Oc2ccc(cc2Cl)[C@@H](O)[C@@H](NC(=O)[C@@H](CC(C)C)NC)C(=O)N[C@@H](CC(N)=O)C(=O)N[C@H]4C(=O)N[C@H]2C(=O)N[C@H](C(=O)N[C@H](C(=O)O)c4cc(O)cc(O)c4-c4cc2ccc4O)[C@H](O)c2ccc(c(Cl)c2)O3)OC(C)[C@@H]1O (stereo partly shown) [Compound 8]	0.32 µM (≈ 0.509 µg/mL)	0.3 µM (≈ 0.477 µg/mL)	0.3 µM (≈ 0.477 µg/mL)	14 µM (≈ 22.3 µg/mL)	0.2 µM (≈ 0.318 µg/mL)	6.2 µM (≈ 9.86 µg/mL)			

Continued by falling MIC [1], values first:

MIC [1]	MIC [2]	MIC [3]	MIC [4]	MIC [5]	MIC [6]	Compound	MIC [7]	MIC [8]	MIC [9]
0.3 µM (≈ 0.485 µg/mL)	0.3 µM (≈ 0.485 µg/mL)	0.3 µM (≈ 0.485 µg/mL)	7 µM (≈ 11.3 µg/mL)	0.2 µM (≈ 0.324 µg/mL)	3.1 µM (≈ 5.01 µg/mL)	CCCCCCCCCCCCN[C@]1(C)C[C@H](OC2C(O)[C@@H](O)C(CO)O[C@@H]2Oc2c3cc4cc2Oc2ccc(cc2Cl)[C@@H](O)[C@@H](NC(=O)[C@@H](CC(C)C)NC)C(=O)N[C@@H](CC(N)=O)C(=O)N[C@H]4C(=O)N[C@H]2C(=O)N[C@H](C(=O)N[C@H](C(=O)O)c4cc(O)cc(O)c4-c4cc2ccc4O)[C@H](O)c2ccc(c(Cl)c2)O3)OC(C)[C@@H]1O (stereo partly shown) [Compound 16]			
0.3 µM (≈ 0.554 µg/mL)	0.3 µM (≈ 0.554 µg/mL)	0.38 µM (≈ 0.701 µg/mL)	36 µM (≈ 66.4 µg/mL)	0.4 µM (≈ 0.738 µg/mL)		CN[C@H](CC(C)C)C(=O)N[C@H]1C(=O)N[C@@H](CC(N)=O)C(=O)N[C@H]2C(=O)N[C@H]3C(=O)N[C@H](C(=O)N[C@H](C(=O)NCCCNC(=O)[C@H](O)[C@@H](O)[C@H](OC4OC(CO)C(O)C(O)C4O)[C@H](O)CO)c4cc(O)cc(O)c4-c4cc3ccc4O)[C@H](O)c3ccc(c(Cl)c3)Oc3cc2cc(c3O[C@H]2OC(CO)[C@H](O)C(O)C2O[C@H]2C[C@@](C)(N)[C@H](O)C(C)O2)Oc2ccc(cc2Cl)[C@H]1O (stereo partly shown) [Compound 4]			
